Data on two molecules can be found in ChEMBL document CHEMBL1131918, “Quantitative analysis of the kinetics of phospholipase A2 using fast atom bombardment mass spectrometry” (Bioorg Med Chem Lett, 1999).

What is called Km is the substrate concentration at which the rate is half of its maximum.

Series [1] deals with phospholipase A2. In words: Michaelis -Menten constant against phospholipase A2 was determined. The format is ADME. The note with it: phospholipase A2 enzyme.
The nature of series [2]: Catalytic rate constant against phospholipase A2 was determined. In kind it is ADME.

Molecules are shown by their SMILES.

Consider `CCCCCCCCCC(=O)OCC(O)COP(=O)([O-])OCC[N+](C)(C)C` (centres undefined), for which the Km in series [1] turned out to be 2300 µM. This molecule showed a k cat in series [2] of 1.03 µM/min/mg.
Regarding `CCCCCCCCCC(=O)OCC(COP(=O)([O-])OCC[N+](C)(C)C)OC(=O)CCCCCCCCC` (centres undefined), the Km in series [1] came out at 2400 µM. The k cat in series [2] turned out to be 1.06 µM/min/mg.
